Data on eleven molecules can be found in ChEMBL document CHEMBL1201862, “PubChem BioAssay data set” (2004).

Holding throughout (test): inhibition of tumour cell growth, NCI panel, 48 h
Test [1] deals with SK-MEL-5.
Test [2] deals with SN12C.
The subject of test [3] is HT-29.
In test [4] the test system is MDA-MB-435.
The subject of test [5] is RXF 393.
The test system of test [6] is EKVX.
In test [7] the test system is MOLT-4.
The test system of test [8] is A549.
The test system of test [9] is OVCAR-8.
The test system of test [10] is TK-10.
Test [11] relates to NCI-H23.
The test system of test [12] is M14.
For test [13], the system named is UACC-62.
The subject of test [14] is HOP-62.
The test system of test [15] is SF-295.
Test [16] concerns 786-0.
Test [17] has as its system SR.
For test [18], the system named is IGROV-1.
For test [19], the system named is U-251.
In test [20] the test system is SF-539.

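Values below derive from 48-hour exposures of cells grown in 96-well plates, with endpoints linearly interpolated between the two concentrations bracketing the appropriate inhibition level. GI50 = concentration required for 50% inhibition of growth.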 Activity calls are given as the source filed them. Rule as the data show it: active = GI50 up to about 1.1 µM and inactive = higher.

Consider `C=C(C)CN(CC#N)CC(=C)C`, for which the GI50 in test [1], in test [2], in test [3], in [4], in test [5] and in [6] was > 100 µM (inactive) each time. Moreover, the GI50 in test [7], in test [8], in test [9], in [10], in [11] and in [12] was > 100 µM (inactive) each time. Besides, the GI50 in test [13], in [14], in [15], in test [16], in [17] and in test [18] was > 100 µM (inactive) each time. In addition, the GI50 in test [19] is > 100 µM (inactive).

Consider `COC1(OC)CC(CO)(CNc2nc(N)nc(Cl)c2/C=N\O)C1`, for which the GI50 was 43.1 µM (inactive) in test [1]; 87.7 µM (inactive) in test [2]; 38.4 µM (inactive) in test [3]; 31.5 µM (inactive) in test [4]; 18.7 µM (inactive) in test [5]; 22.7 µM (inactive) in test [6]. For the same molecule, the GI50 in test [7] was 15.3 µM (inactive); in [8], 59.7 µM (inactive); in test [9], 54.7 µM (inactive); in test [10], 25.9 µM (inactive); in test [11], 9.77 µM (inactive); in test [20], 38.8 µM (inactive). The GI50 in [14] is 23.2 µM (inactive); in test [15], 33.3 µM (inactive); in [16] it was 44.2 µM (inactive); in test [17] it was 13.4 µM (inactive); in test [18], 21.3 µM (inactive); in [19], 43.7 µM (inactive).

`NC(=O)N/N=C1\CCCCc2ccccc21`: the GI50 in [2], in [3], in test [4], in test [5], in test [6] and in test [7] was > 10 µM (inactive) each time. Moreover, the GI50 in test [8], in test [9], in test [10], in [11], in [12] and in [14] was > 10 µM (inactive) in each case. Besides, the GI50 in test [16], in [17] and in test [19] was > 10 µM (inactive) in each case.

Turning to `CCc1cc2c(oc3cc(C)ccc32)c(=O)n1C`, the GI50 in test [2], in test [3], in [4], in test [5], in test [6] and in test [7] was > 10 µM (inactive) each time. Besides, the GI50 in test [8], in [9], in test [10], in [11], in test [20] and in [12] was > 10 µM (inactive) each time. Moreover, the GI50 in test [15], in test [16], in test [17], in [18] and in test [19] was > 10 µM (inactive) each time.

For `CC(=O)Nc1ccc2c(c1)[nH]c(=O)c1cc(Cl)ccc12`, the GI50 in test [1] was 15.9 µM (inactive); in test [2], 43.5 µM (inactive); in test [3], 15.4 µM (inactive); in [4], 23.4 µM (inactive); in [6], 26.2 µM (inactive); in test [7], 2.23 µM (inactive). In addition, the GI50 in test [8] is 5.61 µM (inactive); in test [9] it was 10 µM (inactive); in test [10], 15.2 µM (inactive); in test [11], 17.1 µM (inactive); in test [20] it was 40.1 µM (inactive); in [12], 36.5 µM (inactive). The GI50 in [13] was 12.3 µM (inactive); in [14] it was 33 µM (inactive); in test [15] it was 35.1 µM (inactive); in [16] it was 65.6 µM (inactive); in test [17], 3.2 µM (inactive); in [18] it was 6.75 µM (inactive). The GI50 in test [19] was 34.3 µM (inactive).

Turning to `NC(=O)CN1CC(C2=C(O)CN(CC(N)=O)C2=O)=CC1=O`, the GI50 in test [1], in test [2], in test [3], in [4], in [6] and in test [7] was > 100 µM (inactive) each time. Besides, the GI50 in [8], in test [9], in test [10], in test [11], in [20] and in [12] was > 100 µM (inactive) throughout. Also, the GI50 in [13], in test [14], in test [15], in [16], in test [17] and in test [18] was > 100 µM (inactive) throughout. For the same molecule, the GI50 in [19] is > 100 µM (inactive).

Take `COc1ncnc2c1cnn2Cc1cn(COCC(O)CO)nn1` (configuration not stated): the GI50 in test [1], in test [2], in [3], in test [4], in test [6] and in test [7] was > 100 µM (inactive) in each case. The GI50 in test [8], in test [9], in test [10], in test [11], in test [20] and in test [12] was > 100 µM (inactive) each time. The GI50 in test [13], in test [14], in [15], in test [16], in test [17] and in [18] was > 100 µM (inactive) throughout. For the same molecule, the GI50 in test [19] was > 100 µM (inactive).

For the molecule `CCOC(=O)C1C(=O)CC(C)(O)C(C(=O)OCC)C1c1ccc(N(C)C)cc1` (configuration not stated), the GI50 in test [1], in [2], in test [3], in test [4], in test [5] and in [6] was > 100 µM (inactive) throughout. Further, the GI50 in [7], in test [8], in test [9], in test [10], in [11] and in test [13] was > 100 µM (inactive) throughout. Moreover, the GI50 in test [14], in test [15], in test [16], in test [17], in test [18] and in test [19] was > 100 µM (inactive) throughout.

On to `c1ccc(Cc2cccc3cc(-c4ccc(-c5ccccc5)cc4)[nH]c23)cc1`, for which the GI50 in [1] was > 100 µM (inactive); in [2], 96.6 µM (inactive); in test [3] it was > 100 µM (inactive); in [4], > 100 µM (inactive); in [6], > 100 µM (inactive); in test [7], > 100 µM (inactive). For the same molecule, the GI50 in test [8] was 76.7 µM (inactive); in test [9], 45.8 µM (inactive); in test [10], > 100 µM (inactive); in test [11], > 100 µM (inactive); in [20], 53.8 µM (inactive); in test [12], 52.8 µM (inactive). The GI50 was > 100 µM (inactive) in test [13]; 31.5 µM (inactive) in test [14]; > 100 µM (inactive) in test [15]; > 100 µM (inactive) in test [16]; 16.9 µM (inactive) in test [17]; > 100 µM (inactive) in test [18]. Further, the GI50 in test [19] is 70.6 µM (inactive).

Turning to `COc1ccc(N2C(=O)/C(=C\c3cccc(Oc4ccccc4)c3)S(=O)(=O)C2c2ccccc2)cc1` (configuration not stated), the GI50 in test [1] was 16.3 µM (inactive); in test [2], 66.4 µM (inactive); in test [4], 19.8 µM (inactive); in test [5] it was 17.1 µM (inactive); in test [6] it was 15.7 µM (inactive); in test [7], 0.146 µM (active). The GI50 in [8] was 31.5 µM (inactive); in test [10], 37.1 µM (inactive); in test [11], 28.4 µM (inactive); in test [12] it was 38.8 µM (inactive); in test [13], 25.1 µM (inactive); in [14] it was 51.9 µM (inactive). In addition, the results for the GI50 in test [16], in test [17] and in [19] were 18.1 µM (inactive), 3.7 µM (inactive) and 50.7 µM (inactive), respectively.

In the case of `CCC1c2[nH]c3ccccc3c2C[C@H]2C(=O)NC(Cc3ccccc3)C(=O)N12` (some centres not stated), the GI50 is 19.9 µM (inactive) in test [1]; 28.5 µM (inactive) in [2]; 23.5 µM (inactive) in [3]; 20.2 µM (inactive) in test [4]; 22.1 µM (inactive) in test [5]; 30.3 µM (inactive) in test [6]. Further, the GI50 in test [7] is 21.4 µM (inactive); in [8], 30.1 µM (inactive); in test [9], 34.5 µM (inactive); in test [10] it was 23.7 µM (inactive); in [11], 37.1 µM (inactive); in test [12] it was 27.9 µM (inactive). The GI50 in [13] is 17.2 µM (inactive); in test [14], 34.8 µM (inactive); in test [15] it was 24.4 µM (inactive); in test [16], 36 µM (inactive); in test [17] it was 21.2 µM (inactive); in test [18], 28.8 µM (inactive). Further, the GI50 in test [19] was 22.8 µM (inactive).
